The test has as its system BDF1 mice, P288 leukemia ip, survival T/C. As to the kind of experiment: NCI In Vivo Anticancer Drug Screen. Data for tumor model P288 Lymphocytic Leukemia (intraperitoneal) in B6D2F1 (BDF1) mice. The settings on record: endpoint: survival time, mean or median, higher = longer survival. The procedure: The antitumor activity of compounds was measured in mice bearing transplantable tumors. Survival or tumor size were measured and the results are expressed as the measurement made in the treated group (T) divided by the measurement made in the vehicle treated control group (C). The tumor model used in this assay is P288 Lymphocytic Leukemia (intraperitoneal) in B6D2F1 (BDF1) mice

Where [1] appears, read: dose: 0.31 mg/kg/injection, schedule: Q01DX Z (ip), vehicle: carboxymethylcellulose (CMC).
Where [2] appears, read: dose: 0.63 mg/kg/injection, schedule: Q01DX Z (ip), vehicle: carboxymethylcellulose (CMC).
Setting [3] is: dose: 1.25 mg/kg/injection, schedule: Q01DX Z (ip), vehicle: carboxymethylcellulose (CMC).
Setting [4] is: dose: 2.5 mg/kg/injection, schedule: Q01DX Z (ip), vehicle: carboxymethylcellulose (CMC).
Setting [5] is: dose: 25.0 mg/kg/injection, schedule: Q01DX010 (ip), vehicle: saline.
Where [6] appears, read: dose: 100.0 mg/kg/injection, schedule: Q01DX010 (ip), vehicle: saline.
[7] abbreviates: dose: 200.0 mg/kg/injection, schedule: Q01DX010 (ip), vehicle: saline.
[8] abbreviates: dose: 31.3 mg/kg/injection, schedule: Q01DX010 (ip), vehicle: saline.
The mark [9] stands for this setting: dose: 62.5 mg/kg/injection, schedule: Q01DX010 (ip), vehicle: saline.
Setting [10] is: dose: 125.0 mg/kg/injection, schedule: Q01DX010 (ip), vehicle: saline.
Setting [11] is: dose: 500.0 mg/kg/injection, schedule: Q01DX010 (ip), vehicle: saline.
The mark [12] stands for this setting: dose: 250.0 mg/kg/injection, schedule: Q01DX010 (ip), vehicle: saline.

Where “and” joins values, the source holds several entries; their conditions need not be identical. Identical values can stand only once. Toxic doses and inconclusive results are not listed.

In the case of `CCN(CC)c1ccc2cc3ccc(=[N+](CC)CC)cc-3oc2c1`, the T/C runs as follows: (dose: 0.08 mg/kg/injection, schedule: Q01DX Z (ip), vehicle: carboxymethylcellulose (CMC)) 110 % of control; (dose: 0.16 mg/kg/injection, schedule: Q01DX Z (ip), vehicle: carboxymethylcellulose (CMC)) 90 % of control; under setting [1], 108 % of control; (dose: 0.32 mg/kg/injection, schedule: Q01DX Z (ip), vehicle: carboxymethylcellulose (CMC)) 96 % of control; under setting [2], 100 % of control; under setting [3], 106 % of control. For the same compound, the T/C runs as follows: under setting [4], 102 % of control; (dose: 5.0 mg/kg/injection, schedule: Q01DX Z (ip), vehicle: carboxymethylcellulose (CMC)) 115 % of control and 117 % of control.
`COc1cc(-c2ccc(Nc3ccccc3C(=O)O)c(OC)c2)ccc1Nc1ccccc1C(=O)O`: the T/C under setting [5] was 116 % of control, the T/C under setting [6] is 155 % of control and the T/C under setting [7] was 161 % of control.
Take `CCCCNc1ncnc2c1cnn2C`: the T/C is, setting by setting: (dose: 0.22 mg/kg/injection, schedule: Q01DX Z (ip), vehicle: carboxymethylcellulose (CMC)) 90 % of control; (dose: 0.45 mg/kg/injection, schedule: Q01DX Z (ip), vehicle: carboxymethylcellulose (CMC)) 90 % of control; (dose: 0.9 mg/kg/injection, schedule: Q01DX Z (ip), vehicle: carboxymethylcellulose (CMC)) 90 % of control.
With `O=C1C(NC(=O)C2CCCCC2)=C(N2CC2)C(=O)C(NC(=O)C2CCCCC2)=C1N1CC1`, the T/C (dose: 18.8 mg/kg/injection, schedule: Q01DX Z (ip), vehicle: carboxymethylcellulose (CMC)) is 93 % of control; the T/C under setting [5] is 100 % of control; the T/C (dose: 37.5 mg/kg/injection, schedule: Q01DX Z (ip), vehicle: carboxymethylcellulose (CMC)) is 96 % of control; the T/C (dose: 50.0 mg/kg/injection, schedule: Q01DX010 (ip), vehicle: saline) was 94 % of control; the T/C (dose: 75.0 mg/kg/injection, schedule: Q01DX Z (ip), vehicle: carboxymethylcellulose (CMC)) is 107 % of control; the T/C under setting [6] is 88 % of control. Also, the T/C by setting is: (dose: 150.0 mg/kg/injection, schedule: Q01DX Z (ip), vehicle: carboxymethylcellulose (CMC)) 100 % of control; under setting [7], 100 % of control; (dose: 300.0 mg/kg/injection, schedule: Q01DX Z (ip), vehicle: carboxymethylcellulose (CMC)) 112 % of control; (dose: 600.0 mg/kg/injection, schedule: Q01DX Z (ip), vehicle: carboxymethylcellulose (CMC)) 105 % of control and 120 % of control; (dose: 1200.0 mg/kg/injection, schedule: Q01DX Z (ip), vehicle: carboxymethylcellulose (CMC)) 86 % of control.
As for `CN(C)[C@@H]1C(=O)C(C(N)=O)=C(O)[C@@]2(O)C(=O)C3=C(O)c4c(O)cccc4C[C@H]3C[C@@H]12`, the T/C reads like this: (dose: 7.5 mg/kg/injection, schedule: Q01DX010 (ip), vehicle: saline) 94 % of control; (dose: 15.0 mg/kg/injection, schedule: Q01DX010 (ip), vehicle: saline) 105 % of control and 94 % of control; (dose: 30.0 mg/kg/injection, schedule: Q01DX010 (ip), vehicle: saline) 122 % of control and 100 % of control; (dose: 60.0 mg/kg/injection, schedule: Q01DX010 (ip), vehicle: saline) 94 % of control and 100 % of control.
As to `CC1CCOS(=O)O1` (centres undefined), the T/C reads like this: (dose: 10.0 mg/kg/injection, schedule: Q01DX010 (ip), vehicle: saline) 88 % of control; (dose: 20.0 mg/kg/injection, schedule: Q01DX010 (ip), vehicle: saline) 100 % of control; (dose: 40.0 mg/kg/injection, schedule: Q01DX010 (ip), vehicle: saline) 100 % of control.
In the case of `NC(=O)N(CCCl)N=O`, the T/C is, setting by setting: (dose: 0.5 mg/kg/injection, schedule: Q01DX010 (ip), vehicle: saline) 205 % of control; (dose: 1.0 mg/kg/injection, schedule: Q01DX010 (ip), vehicle: saline) 222 % of control; (dose: 1.0 mg/kg/injection, schedule: Q01DX Z (ip), vehicle: carboxymethylcellulose (CMC)) 105 % of control; (dose: 2.0 mg/kg/injection, schedule: Q01DX010 (ip), vehicle: saline) 166 % of control; (dose: 2.0 mg/kg/injection, schedule: Q01DX Z (ip), vehicle: carboxymethylcellulose (CMC)) 98 % of control; (dose: 4.0 mg/kg/injection, schedule: Q01DX Z (ip), vehicle: carboxymethylcellulose (CMC)) 104 % of control. Moreover, where the note is “dose: 8.0 mg/kg/injection, schedule: Q01DX Z (ip), vehicle: carboxymethylcellulose (CMC)”, the T/C is 152 % of control and 210 % of control.
On to `Nc1ncnc2c1ccn2C1OC(CO)C(O)C1O` (centres undefined), for which the T/C is 108 % of control and 92 % of control under setting [1]; 112 % of control and 93 % of control under setting [2]; 90 % of control under setting [3]; 106 % of control under setting [4].
For `Nc1c(Br)cc2c(c1Br)Cc1cc([N+](=O)[O-])ccc1-2`, the T/C (dose: 15.6 mg/kg/injection, schedule: Q01DX010 (ip), vehicle: saline) was 122 % of control; the T/C under setting [8] is 116 % of control; the T/C under setting [9] is 111 % of control and 116 % of control; the T/C under setting [10] was 116 % of control and 94 % of control; the T/C under setting [11] is 88 % of control.
On to `CC(=O)Nc1ccc(/C=N/Nc2ccc([N+](=O)[O-])cn2)cc1`, for which the T/C is 89 % of control under setting [8], 89 % of control under setting [9] and 89 % of control under setting [12].
For `Nc1nc(N)c2nc(CNc3ccc(C(=O)NC(CCC(=O)O)C(=O)O)cc3)cnc2n1` (centres undefined), the T/C reads like this: (dose: 0.05 mg/kg/injection, schedule: Q01DX010 (ip), vehicle: other) 100 % of control; (dose: 0.1 mg/kg/injection, schedule: Q01DX010 (ip), vehicle: other) 116 % of control; (dose: 0.2 mg/kg/injection, schedule: Q01DX010 (ip), vehicle: other) 177 % of control; (dose: 0.4 mg/kg/injection, schedule: Q01DX010 (ip), vehicle: other) 194 % of control.
Consider `O=CN(O)CC(=O)O`, for which the T/C reads like this: (dose: 31.25 mg/kg/injection, schedule: Q01DX Z (ip), vehicle: carboxymethylcellulose (CMC)) 110 % of control; under setting [9], 100 % of control; (dose: 62.5 mg/kg/injection, schedule: Q01DX Z (ip), vehicle: carboxymethylcellulose (CMC)) 104 % of control; under setting [10], 100 % of control; (dose: 125.0 mg/kg/injection, schedule: Q01DX Z (ip), vehicle: carboxymethylcellulose (CMC)) 100 % of control; under setting [12], 100 % of control. Besides, the T/C was 110 % of control (dose: 250.0 mg/kg/injection, schedule: Q01DX Z (ip), vehicle: carboxymethylcellulose (CMC)); 88 % of control under setting [11]; 106 % of control and 115 % of control (dose: 500.0 mg/kg/injection, schedule: Q01DX Z (ip), vehicle: carboxymethylcellulose (CMC)); 100 % of control (dose: 1000.0 mg/kg/injection, schedule: Q01DX Z (ip), vehicle: carboxymethylcellulose (CMC)).
With `CN(Cc1cnc2nc(N)nc(N)c2n1)c1c(Cl)cc(C(=O)NC(CCC(=O)O)C(=O)O)cc1Cl` (centres undefined), the T/C was 232 % of control (dose: 12.5 mg/kg/injection, schedule: Q01DX Z (ip), vehicle: carboxymethylcellulose (CMC)); 300 % of control (dose: 25.0 mg/kg/injection, schedule: Q01DX Z (ip), vehicle: carboxymethylcellulose (CMC)); 320 % of control (dose: 50.0 mg/kg/injection, schedule: Q01DX Z (ip), vehicle: carboxymethylcellulose (CMC)); 288 % of control (dose: 100.0 mg/kg/injection, schedule: Q01DX Z (ip), vehicle: carboxymethylcellulose (CMC)).

The record behind these values is PubChem BioAssay AID216 (DTP/NCI, 2004).
